According to article PMC11642448, “Pheromone-Binding Protein 1 Performs a Dual Function for Intra- and Intersexual Signaling in a Moth” (International Journal of Molecular Sciences, 2024):

How the values were obtained:
AaenPBP1 [1] = molecular target: T1, AaenPBP1 (Agriphila aeneociliella, UniProt Z9SOT8HEE8); test: fluorescence titration, Scatchard analysis; assay type: binding
T1 construct: mature protein without signal peptide (1-23 of 166 aa ORF); pET-15b with SUMO tag, His-tag Ni-NTA purification, E. coli BL21(DE3)
T1 sequence (Z9SOT8HEE8 24-166): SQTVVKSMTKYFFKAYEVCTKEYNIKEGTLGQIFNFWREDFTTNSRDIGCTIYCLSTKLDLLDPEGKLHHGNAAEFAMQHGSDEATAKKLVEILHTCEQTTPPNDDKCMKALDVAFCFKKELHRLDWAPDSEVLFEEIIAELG

AaenPBP1 [2] = molecular target: T1, AaenPBP1; test: competitive fluorescence binding (1-NPN displacement)

| Ki (AaenPBP1 [2]) | Structure (SMILES) | Kd (AaenPBP1 [1]) |
| --- | --- | --- |
| – | c1ccc(Nc2cccc3ccccc23)cc1 [1-NPN] | 4.6 µM |
| 7.04 µM | CCCCCCCCC=O [1-Nonanal] | – |
| 1.72 µM | CCCCCC/C=C\CCCCCCCCOC(C)=O [(Z)-9-Hexadecenyl acetate] | – |
